Assay: Dissolution testing of IBU-loaded mesoporous particles (USP I rotating basket)
Format: physicochemical
Details: after 120 mins; pH 3.0 medium + 0.25% SLS, 900 mL, 37° C., 100 rpm, 50 mg IBU in HPMC capsule
Method: Testing conditions: HCL-NaCl medium pH 3+0.25% SLS, 900 mL, USP apparatus 1 (rotating basket), 100 rpm, HPLC method (mobile phase: pH 3 phosphate buffer:acetonitrile (60:40); column: C18, 15 cm×4.6 mm, 5 μm; flow rate: 2 mL/min; injection volume: 20 μL; detector: UV, 254 nm).
Dissolution testing of IBU-loaded mesoporous particles as prepared in Example 4 was performed by using USP I apparatus (rotating basket, 100 rpm) in an Erweka DT 126 dissolution tester. Samples containing 50 mg of IBU were loaded into a HPMC hard-shell capsule and tested in 900 mL of pH 3.0 medium with 0.25% SLS at 37° C. The pH 3 medium was prepared by dissolving 2 g of sodium chloride and 2.5 g of SLS in 400 mL of deionised water, then adding 0.1 mL of hydrochloric acid 37%, and diluting with deionised water to 1000.0 mL. The concentrations of dissolved IBU were determined using a HPLC method with mobile phase of phosphate buffer pH 3: acetonitrile (60:40), C18 column (15 cm×4.6 mm, 5 μm), flow rate of 2 mL/min, injection volume of 20 μL, and UV detector at 254 nm in an Agilent 1200 HPLC system.

Compound: CC(C)Cc1ccc(C(C)C(=O)O)cc1 (stereo not shown) [Ibuprofen raw material, Ibuprofen]
- Ibuprofen dissolved: 73.4%

— patent US20220354791A1, “MESOPOROUS POLYMERIC PARTICULATE MATERIAL” (Aston University, priority 2019, published 2022)
